In paper PMC11410943 (Nature Communications, 2024):
≈ marks a conversion by molar mass, not a printed value. Read-outs that look alike come from different tables or passages of the source.

How the values were obtained:
[1] = system: Enterobacter cloacae; experiment: MIC; conditions: IHMA/CARB-X MDR clinical isolates 2019, N=152
[2] = system: Citrobacter spp.; experiment: MIC
[3] = system: Serratia marcescens; experiment: MIC; conditions: IHMA/CARB-X MDR clinical isolates 2019, N=45
[4] = system: Morganella morganii; experiment: MIC; conditions: IHMA/CARB-X MDR clinical isolates 2019, N=42
[5] = system: Pseudomonas aeruginosa; experiment: MIC
[6] = system: Proteus spp.; experiment: MIC
[7] = system: Klebsiella pneumoniae; experiment: MIC
[8] = system: Escherichia coli; experiment: MIC
[9] = target: hERG K+ channel (Homo sapiens, UniProt Q12809); experiment: hERG automated patch-clamp; format: cell-based
Sequence of hERG K+ channel (Q12809 whole entry): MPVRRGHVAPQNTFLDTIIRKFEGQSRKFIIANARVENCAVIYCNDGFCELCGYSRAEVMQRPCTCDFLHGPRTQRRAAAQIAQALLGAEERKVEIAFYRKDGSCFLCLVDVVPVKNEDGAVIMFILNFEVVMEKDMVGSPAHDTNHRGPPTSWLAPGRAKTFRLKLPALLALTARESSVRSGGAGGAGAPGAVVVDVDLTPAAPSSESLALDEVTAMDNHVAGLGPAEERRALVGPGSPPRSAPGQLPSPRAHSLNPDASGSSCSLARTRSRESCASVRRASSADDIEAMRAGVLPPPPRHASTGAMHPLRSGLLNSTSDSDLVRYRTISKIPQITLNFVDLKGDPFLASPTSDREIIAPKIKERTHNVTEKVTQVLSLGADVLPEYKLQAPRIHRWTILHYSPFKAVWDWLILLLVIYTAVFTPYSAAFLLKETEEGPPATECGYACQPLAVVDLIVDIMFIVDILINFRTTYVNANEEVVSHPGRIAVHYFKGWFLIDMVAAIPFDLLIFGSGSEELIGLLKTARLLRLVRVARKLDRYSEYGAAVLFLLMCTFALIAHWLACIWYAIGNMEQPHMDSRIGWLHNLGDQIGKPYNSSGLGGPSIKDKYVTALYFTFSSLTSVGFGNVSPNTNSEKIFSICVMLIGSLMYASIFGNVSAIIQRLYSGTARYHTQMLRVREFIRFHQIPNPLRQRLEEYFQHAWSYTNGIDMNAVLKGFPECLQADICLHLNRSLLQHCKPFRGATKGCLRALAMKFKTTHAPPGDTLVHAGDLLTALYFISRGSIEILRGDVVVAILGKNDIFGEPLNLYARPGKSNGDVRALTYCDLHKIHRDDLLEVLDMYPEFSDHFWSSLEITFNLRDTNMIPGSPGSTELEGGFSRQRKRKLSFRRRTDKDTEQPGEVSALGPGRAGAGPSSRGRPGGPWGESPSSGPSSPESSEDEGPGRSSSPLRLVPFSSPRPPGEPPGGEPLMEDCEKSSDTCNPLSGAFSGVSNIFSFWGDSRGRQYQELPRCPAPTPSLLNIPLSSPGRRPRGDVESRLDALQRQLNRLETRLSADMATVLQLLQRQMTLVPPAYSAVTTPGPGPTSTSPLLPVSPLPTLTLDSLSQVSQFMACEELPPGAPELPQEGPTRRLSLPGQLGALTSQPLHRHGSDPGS

[10] = system: Acinetobacter baumannii; experiment: MIC; conditions: IHMA/CARB-X MDR clinical isolates 2019, N=298
[11] = system: Stenotrophomonas maltophilia; experiment: MIC; conditions: IHMA/CARB-X MDR clinical isolates 2019, N=150
[12] = IHMA/CARB-X MDR clinical isolates 2019, N=151
[13] = IHMA/CARB-X MDR clinical isolates 2019, N=300
[14] = IHMA/CARB-X MDR clinical isolates 2019, N=152

Compound	MIC90 [1] [µg/mL]	MIC90 [2, 12] [µg/mL]	MIC90 [3] [µg/mL]	MIC90 [4] [µg/mL]	MIC90 [5, 13] [µg/mL]	MIC90 [6, 14] [µg/mL]	MIC90 [7, 13] [µg/mL]	MIC90 [8, 13] [µg/mL]	increase in hERG IC50 vs compound 5 [9] [fold]	MIC90 [10] [µg/mL]	MIC90 [11] [µg/mL]	MIC90 ([1]; Enterobacter cloacae) [µg/mL]	MIC90 ([10]; Acinetobacter baumannii) [µg/mL]	MIC90 ([2]; Citrobacter) [µg/mL]	MIC90 ([4]; Morganella morganii) [µg/mL]	MIC90 ([5]; Pseudomonas aeruginosa) [µg/mL]	MIC90 [6] [µg/mL]	MIC90 ([7]; Klebsiella pneumoniae) [µg/mL]	MIC90 ([8]; Escherichia coli) [µg/mL]
Aztreonam/Avibactam	0.5	0.25	0.25	0.06	> 16	≤ 0.016	0.25	0.125	–	–	–	–	–	–	–	–	–	–	–
Cn1c(=O)ccc2ccc(F)c(CCNC[C@H]3CN(c4ncc5c(n4)NC(=O)CO5)C(=O)O3)c21 [Compound 6, 2-[(5S)−5-[[[2-(7-Fluoro-1,2-dihydro-1-methyl-2-oxo-8-quinolinyl)ethyl]amino]methyl]−2-oxo-3-oxazolidinyl]−6H-pyrimido[5,4-b][1,4]oxazin-7(8H)-one]	–	–	–	–	–	–	–	–	> 10	–	–	–	–	–	–	–	–	–	–
Meropenem-vaborbactam	0.25	≤ 0.03	0.125	0.06	32	0.125	16	≤ 0.03	–	> 32	> 32	–	–	–	–	–	–	–	–
NCC[C@H](O)C(=O)N[C@@H]1C[C@H](N)[C@@H](O[C@H]2O[C@H](CN)[C@@H](O)[C@H](O)[C@H]2O)[C@H](O)[C@H]1O[C@H]1O[C@H](CO)[C@@H](O)[C@H](N)[C@H]1O [Amikacin]	–	–	–	–	–	–	–	–	–	–	–	4 (≈ 6.83 µM)	> 64	4 (≈ 6.83 µM)	8 (≈ 13.7 µM)	64 (≈ 109 µM)	4 (≈ 6.83 µM)	32 (≈ 54.6 µM)	8 (≈ 13.7 µM)
COCC1=C(C(=O)O)N2C(=O)[C@@H](NC(=O)/C(=N\OC)c3csc(N)n3)[C@H]2SC1 [Cefpodoxime]	–	–	–	–	–	–	–	–	–	–	–	64 (≈ 150 µM)	–	> 32	> 32	–	> 32	> 32	> 32
CN(C)[C@@H]1C(O)=C(C(N)=O)C(=O)[C@@]2(O)C(O)=C3C(=O)c4c(O)c(NC(=O)CN5CCCC5)cc(F)c4C[C@H]3C[C@@H]12 [Eravacycline]	–	–	–	–	–	–	–	–	–	–	–	–	–	0.5 (≈ 0.895 µM)	1 (≈ 1.79 µM)	–	2 (≈ 3.58 µM)	1 (≈ 1.79 µM)	0.25 (≈ 0.448 µM)
Colistin	2	0.5	> 32	64	1	> 32	0.5	0.25	–	0.5	> 32	–	–	–	–	–	–	–	–
C[C@H]1c2cccc(O)c2C(=O)C2=C(O)[C@]3(O)C(=O)C(C(N)=O)=C(O)[C@@H](N(C)C)[C@@H]3[C@@H](O)[C@@H]21 [Doxycycline]	–	–	–	–	–	–	–	–	–	–	–	16 (≈ 36 µM)	64 (≈ 144 µM)	16 (≈ 36 µM)	64 (≈ 144 µM)	32 (≈ 72 µM)	> 32	32 (≈ 72 µM)	32 (≈ 72 µM)
C[C@@H](O)[C@H]1C(=O)N2C(C(=O)O)=C(S[C@@H]3CN[C@H](C(=O)N(C)C)C3)[C@H](C)[C@H]12 [Meropenem]	–	–	–	–	–	–	–	–	–	–	–	8 (≈ 20.9 µM)	> 64	≤ 0.06	0.125 (≈ 0.326 µM)	32 (≈ 83.4 µM)	0.125 (≈ 0.326 µM)	32 (≈ 83.4 µM)	≤ 0.06
Cn1c(=O)cnc2ccc(F)c(CCNC[C@H]3CN(c4cnc5c(n4)NC(=O)CO5)C(=O)O3)c21 [Compound 7, 6-[(5S)−5-[[[2-(6-Fluoro-3,4-dihydro-4-methyl-3-oxo-5-quinoxalinyl)ethyl]amino]methyl]−2-oxo-3-oxazolidinyl]−2H-pyrazino[2,3-b]−1,4-oxazin-3(4H)-one]	–	–	–	–	–	–	–	–	4	–	–	–	–	–	–	–	–	–	–
CC(C)(O/N=C(\C(=O)N[C@@H]1C(=O)N2C(C(=O)[O-])=C(C[n+]3ccccc3)CS[C@H]12)c1csc(N)n1)C(=O)O [Ceftazidime]	–	–	–	–	–	–	–	–	–	–	–	128 (≈ 234 µM)	> 32	> 64	16 (≈ 29.3 µM)	> 32	2 (≈ 3.66 µM)	> 64	64 (≈ 117 µM)
CN[C@@H]1[C@@H](O)[C@@H](O[C@@H]2[C@@H](O)[C@H](O[C@H]3OC(CNCCO)=CC[C@H]3N)[C@@H](N)C[C@H]2NC(=O)[C@@H](O)CCN)OC[C@]1(C)O [Plazomicin]	–	–	–	–	–	–	–	–	–	–	–	0.5 (≈ 0.844 µM)	–	0.5 (≈ 0.844 µM)	8 (≈ 13.5 µM)	–	4 (≈ 6.75 µM)	0.5 (≈ 0.844 µM)	1 (≈ 1.69 µM)
C[C@H]1COc2c(N3CCN(C)CC3)c(F)cc3c(=O)c(C(=O)O)cn1c23 [Levofloxacin]	–	–	–	–	–	–	–	–	–	–	–	64 (≈ 177 µM)	> 32	2 (≈ 5.53 µM)	16 (≈ 44.3 µM)	32 (≈ 88.6 µM)	8 (≈ 22.1 µM)	> 32	16 (≈ 44.3 µM)
